From US20030144347A1, “Method for treating autoimmune disease” (priority 2001, published 2003)

Assays:
[1] = system: patient suffering from rheumatoid arthritis; assay: Case reports: patients suffering from rheumatoid arthritis; type: in vivo, human
Description: A patient suffering from rheumatoid arthritis was administered 25 mg per day of topiramate with an increase every 10 days by 25 mg until 25 mg, 3 times per day, was achieved. The patient previously took 3 or 4 tablets per day of lortab, seven 2.5 mg tablets of methotrexate once a week, 200 mg per day of minocycline and 10 mg per day of prednisone.
An adolescent patient suffering from rheumatoid arthritis began taking 15 mg per day of topiramate for one week, which was then increased by 15 mg weekly until 45 mg per day, in three divided dosages of 15 mg each, was reached. The patient previously took 3 to 5 mg of prednisone daily.
A patient suffering from rheumatoid arthritis with a positive rheumatic factor about 3 decades earlier, at which time they also experienced polyarthritis and Renaud's phenomena, was treated with prednisone 40 mg per day for six months and was then weaned off the prednisone after one year. In the ensuing years, psoriasis developed on both elbows which was worse in the winter. They were an avid golfer and experienced painful swelling and stiffness of both wrists and hands, especially the left, and back pain and stiffness. […] They were begun on Topamax 15 mg a day which was increased weekly by 15 mg until 45 mg per day was taken in divided doses.

[2] = system: patient suffering from psoriatic arthritis; assay: Case reports: patients suffering from psoriatic arthritis; type: in vivo, human
Description: A patient suffering from psoriatic arthritis began taking 15 mg per day of topiramate. […] When the dose was increased slightly to 25 mg twice a day, the patient realized they were experiencing minimal pain and resumed garden work using a rototiller for the first time in two years. These benefits have continued for more than five months at this dose. […] This has continued for more than ten months. A patient suffering from psoriatic arthritis began taking 25 mg per day of topiramate. The dosage was increased each week until […] was achieved. […] The patient was stabilized at 25 mg, twice a day, for convenience. Their benefits from topiramate have continued for almost five months.

[3] = system: patient suffering from ulcerative colitis; assay: Case reports: patients suffering from ulcerative colitis; type: in vivo, human; conditions: Example 9
Description: A patient suffering from ulcerative colitis began taking 25 mg per day of topiramate, with dosage increases of 25 mg/day each week. […] By the end of nine months, the patient's weight was decreased to 270 lbs from 315 lbs. Their disease was no longer affecting their ability to go to or stay at work. Their colonoscopy exam was negative for the first time since the onset of their illness.

[4] = system: patient suffering from psoriasis; assay: Case reports: patients suffering from psoriasis; type: in vivo, human
Description: A patient suffering from psoriasis began taking 15 mg per day of topiramate for seven days, which was increased by 15 mg per day until reaching a dose of 45 mg/day in equally divided doses.

[5] = system: patient suffering from ulcerative colitis; assay: Case reports: patients suffering from ulcerative colitis; type: in vivo, human
human epilepsy = conditions: clinical trials; cited from earlier work
[6] = system: rodent models of epilepsy; conditions: several rodent models of epilepsy; cited from earlier work
[7] = Example 6, 25 mg per day, 4 weeks

Question: What does the source list for `CC1(C)O[C@@H]2[C@@H](CO[C@@]3(COS(N)(=O)=O)OC(C)(C)O[C@@H]23)O1` [topiramate, 2,3:4,5-bis-O-(1-methylethylidence)-β-D-fructopyranose sulfamate]?
Answer: duration of benefit ([1]; Example 3): 15 weeks; mobility ([1]; Example 3, 25 mg, 3 times per day): increased mobility; pain (patient reported) ([1]; Example 3, 25 mg, 3 times per day, lortab and minocycline discontinued, prednisone and methotrexate reduced): significant decrease in pain; decrease in pain ([1]; Example 4, adolescent patient, 15 mg twice a day): 40-50%; reduction in pain ([1]; Example 4, adolescent patient, 45 mg per day): 70%; duration of benefits ([1]; Example 4, prednisone decreased to 0.5 mg/day): four; psoriasis ([1]; Example 17, 45 mg per day in divided doses): improvement in their psoriasis; joint pain in both hands, self-rating scale of 0 to 10 ([1]; Example 17, 45 mg per day in divided doses, decreased from 6): 2; getting out of bed ([2]; Example 5, 15 mg every morning and 30 mg every evening, after one month): able to more easily get out of bed; skin lesions and joint pain ([2]; Example 5, 15 mg twice per day): some improvement in skin lesions and decreased joint pain; duration of benefits ([2]; Example 5, 25 mg twice a day): more than five; pain ([2]; Example 5, 25 mg twice a day): minimal pain; duration of improvement ([2]; Example 6, 7.5 mg twice a day): more than ten; adverse effect [2, 7]: severe lethargy; middle knuckle swelling [2, 7]: significant reduction and almost total disappearance; course of improvement ([2]; Example 6, dose reduced to 7.5 mg twice a day): improvement continued; duration of benefits ([2]; Example 7, 25 mg, twice a day): five; pain and mobility ([2]; Example 7, 45 mg per day): significant decrease in pain and greater mobility; colonoscopy exam [3]: negative; symptoms ([3]; 50 mg twice a day): decreased intensity of symptoms; symptoms ([3]; 75 mg twice a day): decreased frequency of symptoms; diarrhea ([3]; 100 mg twice a day, asakol dosage reduced): diarrhea had stopped; time at which PASI decrease was maintained ([4]; Example 12): 16 weeks; psoriasis area and severity index (PASI) ([4]; Example 12, 25 mg bid, within 8 weeks, from 12.2): 5.4; lesions ([4]; Example 12, after 10 days at 45 mg): began to decrease; lesions ([4]; Example 16, 15 mg every other day): minimal improvement; lesions ([4]; Example 16, 15 mg per day for 7 days): some improvement; lesions ([4]; Example 16, 30 mg/day in divided dosages): began to get worse; lesions ([4]; Example 16, 45 mg/day in divided doses): clear deterioration; lesions ([4]; Example 16, 60 mg per day): new lesions were occurring; PASI ([4]; Example 16, within the first eight weeks, judged to be unchanged): 29.1; duration of benefit ([5]; Example 8, 7.5 mg per day): more than 16 weeks; mucous ([5]; Example 8, 7.5 mg per day, after 7 days): decrease in mucous; mucous and bleeding ([5]; Example 8, 7.5 mg per day, after two weeks): no mucous or bleeding; adverse effect ([5]; Example 8, 15 mg per day): tired during the day; stools, bowel frequency, mucous ([5]; Example 8, 15 mg per day, after two weeks): stools became darker with increase bowel frequency of movements and mucous; mucous, bowel movements, bleeding ([5]; Example 8, resumed at 7.5 mg per day): decrease in mucous, bowel movements and bleeding; duration of benefit ([5]; Example 10, 7.5 mg per day): 18 weeks; bowel frequency, bleeding and mucous ([5]; Example 10, 15 mg per day, within one week): significant decrease in bowel frequency, bleeding and mucous; bowel frequency, bleeding and mucous ([5]; Example 10, dose increased to 30 and then to 45 mg per day): reversal of benefits and then a further exacerbation of systems; bowel frequency, bleeding and mucous ([5]; Example 10, resumed at 7.5 mg per day): significant decrease in frequency of bowel movement, bleeding and mucous; efficacy in simple and complex partial seizures and secondarily generalized seizures (human epilepsy): effective as adjunctive therapy or as monotherapy; seizures [6]: effectively block seizures
